Patent US20260224571A1, “AZACYCLOALKANE COMPOUND AND PHARMACEUTICAL COMPOSITION, AND USE THEREOF” (Prime Gene Therapeutics Co., Ltd., priority 2023, published 2026)

Legend:
ROCK2 = ROCK2 (Homo sapiens, UniProt O75116); assay: ROCK2 kinase enzymatic activity (HTRF, STK2 substrate); type: biochemical; conditions: ROCK2 kinase reacted at room temperature for 30 minutes
Excerpt: (§1) The kinase activity data was expressed by comparing the kinase activity of the test compound and that of the blank group (containing only DMSO), and the IC50 value was obtained by curve fitting using Prism software (GraphPad7.0).

ROCK1 = ROCK1 (Homo sapiens, UniProt Q13464); assay: ROCK1 kinase enzymatic activity (HTRF, STK2 substrate); type: biochemical; conditions: ROCK1 kinase reacted at room temperature for 20 minutes
Excerpt: as §1

Sequence of ROCK2 (O75116 whole entry): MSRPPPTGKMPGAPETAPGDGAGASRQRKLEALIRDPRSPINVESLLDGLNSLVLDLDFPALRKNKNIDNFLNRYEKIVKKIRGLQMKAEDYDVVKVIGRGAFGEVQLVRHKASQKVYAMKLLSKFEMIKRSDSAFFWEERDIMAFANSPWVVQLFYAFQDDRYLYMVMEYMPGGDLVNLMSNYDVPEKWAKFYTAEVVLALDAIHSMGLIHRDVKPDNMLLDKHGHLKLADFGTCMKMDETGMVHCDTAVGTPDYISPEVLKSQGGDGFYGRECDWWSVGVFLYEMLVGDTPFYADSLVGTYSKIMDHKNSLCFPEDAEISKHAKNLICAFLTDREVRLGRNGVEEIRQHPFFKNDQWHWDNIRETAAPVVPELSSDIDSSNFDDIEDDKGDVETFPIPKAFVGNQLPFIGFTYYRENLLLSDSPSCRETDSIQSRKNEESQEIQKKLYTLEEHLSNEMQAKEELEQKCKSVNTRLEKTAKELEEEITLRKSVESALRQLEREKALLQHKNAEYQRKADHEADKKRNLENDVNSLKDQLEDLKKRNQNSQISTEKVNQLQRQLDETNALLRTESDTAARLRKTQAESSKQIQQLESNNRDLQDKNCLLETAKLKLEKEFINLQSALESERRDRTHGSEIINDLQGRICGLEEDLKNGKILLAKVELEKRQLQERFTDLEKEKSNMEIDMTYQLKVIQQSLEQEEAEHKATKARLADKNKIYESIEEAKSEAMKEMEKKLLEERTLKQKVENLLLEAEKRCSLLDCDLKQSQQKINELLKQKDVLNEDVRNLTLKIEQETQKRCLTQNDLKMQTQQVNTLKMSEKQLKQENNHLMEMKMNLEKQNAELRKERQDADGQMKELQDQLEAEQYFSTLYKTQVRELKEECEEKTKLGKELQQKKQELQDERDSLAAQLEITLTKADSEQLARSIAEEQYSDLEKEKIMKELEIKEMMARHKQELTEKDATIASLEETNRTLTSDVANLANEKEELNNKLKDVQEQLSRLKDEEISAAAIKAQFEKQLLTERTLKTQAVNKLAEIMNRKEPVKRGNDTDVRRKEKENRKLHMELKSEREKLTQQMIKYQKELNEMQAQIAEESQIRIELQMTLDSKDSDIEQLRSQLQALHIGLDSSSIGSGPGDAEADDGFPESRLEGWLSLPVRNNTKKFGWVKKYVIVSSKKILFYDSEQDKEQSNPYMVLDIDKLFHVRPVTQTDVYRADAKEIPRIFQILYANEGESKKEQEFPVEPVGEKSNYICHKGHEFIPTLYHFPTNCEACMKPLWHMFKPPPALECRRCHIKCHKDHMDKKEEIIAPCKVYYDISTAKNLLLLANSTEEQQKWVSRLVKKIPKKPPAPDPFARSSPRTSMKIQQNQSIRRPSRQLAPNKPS
Sequence of ROCK1 (Q13464 whole entry): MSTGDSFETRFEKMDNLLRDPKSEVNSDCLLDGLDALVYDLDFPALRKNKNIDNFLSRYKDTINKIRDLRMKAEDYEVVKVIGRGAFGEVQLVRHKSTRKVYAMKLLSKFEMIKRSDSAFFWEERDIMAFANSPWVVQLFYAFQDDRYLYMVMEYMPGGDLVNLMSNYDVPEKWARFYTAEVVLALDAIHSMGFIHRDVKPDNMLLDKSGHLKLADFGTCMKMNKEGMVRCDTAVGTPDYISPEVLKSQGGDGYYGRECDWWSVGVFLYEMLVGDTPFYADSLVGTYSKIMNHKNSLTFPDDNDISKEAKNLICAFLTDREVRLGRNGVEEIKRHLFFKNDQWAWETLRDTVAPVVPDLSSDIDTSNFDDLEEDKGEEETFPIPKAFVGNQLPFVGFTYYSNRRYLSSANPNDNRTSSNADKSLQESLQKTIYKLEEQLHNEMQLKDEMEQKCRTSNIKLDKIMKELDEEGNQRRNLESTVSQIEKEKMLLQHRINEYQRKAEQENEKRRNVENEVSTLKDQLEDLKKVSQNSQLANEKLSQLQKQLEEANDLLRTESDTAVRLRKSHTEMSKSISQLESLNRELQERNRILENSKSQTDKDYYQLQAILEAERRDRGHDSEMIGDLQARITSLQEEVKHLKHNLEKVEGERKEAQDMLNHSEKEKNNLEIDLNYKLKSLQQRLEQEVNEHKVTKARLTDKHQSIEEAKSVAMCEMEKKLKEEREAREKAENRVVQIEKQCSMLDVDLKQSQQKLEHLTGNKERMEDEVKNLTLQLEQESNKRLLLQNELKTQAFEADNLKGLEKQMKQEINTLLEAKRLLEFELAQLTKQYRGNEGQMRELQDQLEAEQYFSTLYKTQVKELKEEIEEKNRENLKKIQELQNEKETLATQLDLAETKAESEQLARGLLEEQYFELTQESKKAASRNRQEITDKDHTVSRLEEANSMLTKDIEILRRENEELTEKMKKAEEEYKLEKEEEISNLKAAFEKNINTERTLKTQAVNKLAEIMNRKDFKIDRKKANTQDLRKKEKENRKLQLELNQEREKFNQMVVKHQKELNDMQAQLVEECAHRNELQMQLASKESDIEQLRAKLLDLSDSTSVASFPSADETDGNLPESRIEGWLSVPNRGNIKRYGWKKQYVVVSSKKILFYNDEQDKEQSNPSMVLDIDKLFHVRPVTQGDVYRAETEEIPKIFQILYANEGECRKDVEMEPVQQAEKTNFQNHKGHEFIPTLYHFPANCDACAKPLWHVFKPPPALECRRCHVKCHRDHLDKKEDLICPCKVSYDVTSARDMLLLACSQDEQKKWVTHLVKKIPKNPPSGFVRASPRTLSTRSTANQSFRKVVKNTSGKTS

IC50 (ROCK2) [nM] | IC50 (ROCK1) [nM] | SMILES
> 100 | > 100 | N#CCC1(n2cc(-c3ncnc4[nH]ccc34)c(C(N)=O)n2)CN(S(=O)(=O)C2CC2)C1 [Example 67, 1-(3-(cyanomethyl)-1-(cyclopropylsulfonyl)azetidine-3-yl)-4-(7H-pyrrolo[2,3-d]pyrimidin-4-yl)-1H-pyrazol-3-formamide]
< 10 | < 10 | C[C@H](O)C(=O)N1CC(CC#N)(n2cc(-c3ncnc4[nH]ccc34)c(N)n2)C1 [Example 33, (S)-2-(3-(3-amino-4-(7H-pyrrolo[2,3-d]pyrimidin-4-yl)-1H-pyrazol-1-yl)-1-(2-hydroxypropionyl)azetidine-3-yl)acetonitrile]
> 100 | < 50 | N#CCC1(n2cc(-c3ncnc4[nH]ccc34)c(O)n2)CN(S(=O)(=O)C2CC2)C1 [Example 58, 2-(1-(cyclopropylsulfonyl)-3-(3-hydroxy-4-(7H-pyrrolo[2,3-d]pyrimidin-4-yl)-1H-pyrazol-1-yl)azetidine-3-yl)acetonitrile]
< 5 | < 5 | N#CCC1(n2cc(-c3ncnc4[nH]ccc34)c(N)n2)CN(S(=O)(=O)CCC(F)(F)F)C1 [Example 4, 2-(3-(3-amino-4-(7H-pyrrolo[2,3-d]pyrimidin-4-yl)-1H-pyrazol-1-yl)-1-((3,3,3-trifluoropropyl)sulfonyl)azetidine-3-yl)acetonitrile]
< 10 | < 10 | CN(C)S(=O)(=O)N1CC(CC#N)(n2cc(-c3ncnc4[nH]ccc34)c(N)n2)C1 [Example 51, 3-(3-amino-4-(7H-pyrrolo[2,3-d]pyrimidin-4-yl)-1H-pyrazol-1-yl)-3-(cyanomethyl)-N,N-dimethylazetidine-1-sulfonamide]
> 100 | < 50 | CC(C)S(=O)(=O)N1CC(CC#N)(n2cc(-c3ncnc4[nH]ccc34)c(O)n2)C1 [Example 57, 2-(3-(3-hydroxy-4-(7H-pyrrolo[2,3-d]pyrimidin-4-yl)-1H-pyrazol-1-yl)-1-(isopropylsulfonyl)azetidine-3-yl)acetonitrile]
> 100 | > 100 | N#CCC1(n2cc(-c3ncnc4[nH]ccc34)c(C(N)=O)n2)CN(S(=O)(=O)CC(F)(F)F)C1 [Example 60, 1-(3-(cyanomethyl)-1-((2,2,2-trifluoroethyl)sulfonyl)azetidine-3-yl)-4-(7H-pyrrolo[2,3-d]pyrimidin-4-yl)-1H-pyrazole-3-formamide]
< 10 | < 10 | N#CCC1(n2cc(-c3ncnc4[nH]ccc34)c(N)n2)CN(S(=O)(=O)N(CC(F)(F)F)CC(F)(F)F)C1 [Example 43, 3-(3-amino-4-(7H-pyrrolo[2,3-d]pyrimidin-4-yl)-1H-pyrazol-1-yl)-3-(cyanomethyl)-N,N-bis(2,2,2-trifluoroethyl)azetidine-1-sulfonamide]
< 50 | < 50 | C[C@H](NC(=O)N1CC(CC#N)(n2cc(-c3ncnc4[nH]ccc34)c(N)n2)C1)C(F)(F)F [Example 16, (S)-3-(3-amino-4-(7H-pyrrolo[2,3-d]pyrimidin-4-yl)-1H-pyrazol-1-yl)-3-(cyanomethyl)-N-(1,1,1-trifluoropropan-2-yl)azetidine-1-formamide]
> 100 | > 100 | CCS(=O)(=O)N1CC(CC#N)(n2cc(-c3ncnc4[nH]ccc34)c(C(=O)NC)n2)C1 [Example 63, 1-(3-(cyanomethyl)-1-(ethylsulfonyl)azetidine-3-yl)-N-methyl-4-(7H-pyrrolo[2,3-d]pyrimidin-4-yl)-1H-pyrazol-3-formamide]
> 100 | < 50 | CCS(=O)(=O)N1CC(CC#N)(n2cc(-c3ncnc4[nH]ccc34)c(O)n2)C1 [Example 56, 2-(1-(ethylsulfonyl)-3-(3-hydroxy-4-(7H-pyrrolo[2,3-d]pyrimidin-4-yl)-1H-pyrazol-1-yl)azetidine-3-yl)acetonitrile]
< 10 | < 10 | N#CCC1(n2cc(-c3ncnc4[nH]ccc34)c(N)n2)CN(S(=O)(=O)CC(=O)NN)C1 [Example 9]
< 50 | < 50 | CN(C)CC(=O)N1CC(CC#N)(n2cc(-c3ncnc4[nH]ccc34)c(N)n2)C1 [Example 28, 2-(3-(3-amino-4-(7H-pyrrolo[2,3-d]pyrimidin-4-yl)-1H-pyrazol-1-yl)-1-(dimethylglycine)azetidine-3-yl)acetonitrile]
> 100 | > 100 | CNC(=O)c1nn(C2(CC#N)CN(S(=O)(=O)C3CC3)C2)cc1-c1ncnc2[nH]ccc12 [Example 65, 1-(3-(cyanomethyl)-1-(cyclopropylsulfonyl)azetidine-3-yl)-N-methyl-4-(7H-pyrrolo[2,3-d]pyrimidin-4-yl)-1H-pyrazol-3-formamide]
< 10 | < 50 | COCCNS(=O)(=O)N1CC(CC#N)(n2cc(-c3ncnc4[nH]ccc34)c(N)n2)C1 [Example 48, 3-(3-amino-4-(7H-pyrrolo[2,3-d]pyrimidin-4-yl)-1H-pyrazol-1-yl)-3-(cyanomethyl)-N-(2-methoxyethyl)azetidine-1-sulfonamide]
< 5 | < 5 | CCNC(=O)N1CC(CC#N)(n2cc(-c3ncnc4[nH]ccc34)c(N)n2)C1 [Example 14, 3-(3-amino-4-(7H-pyrrolo[2,3-d]pyrimidin-4-yl)-1H-pyrazol-1-yl)-3-(cyanomethyl)-N-ethylazetidine-1-formamide]
< 5 | < 5 | CNC(=O)N1CC(CC#N)(n2cc(-c3ncnc4[nH]ccc34)c(N)n2)C1 [Example 10, 3-(3-amino-4-{7H-pyrrolo[2,3-d]pyrimidin-4-yl}pyrazol-1-yl)-3-(cyanomethyl)-N-methylazetidine-1-formamide]
< 10 | < 10 | N#CCC1(n2cc(-c3ncnc4[nH]ccc34)c(N)n2)CN(C(=O)C(F)(F)C(F)(F)F)C1 [Example 27]
< 10 | < 5 | N#CCC(=O)N1CC(CC#N)(n2cc(-c3ncnc4[nH]ccc34)c(N)n2)C1 [Example 21, 3-(3-(3-amino-4-(7H-pyrrolo[2,3-d]pyrimidin-4-yl)-1H-pyrazol-1-yl)-3-(cyanomethyl)azetidine-1-yl]-3-oxopropionitrile]

Second part, the compound before the results:

SMILES | IC50 (ROCK2) [nM] | IC50 (ROCK1) [nM]
CCS(=O)(=O)N1CC(CC#N)(n2cc(-c3cc(NC)nc4ccnn34)c(N)n2)C1 [Example 85, 2-(3-(3-amino-4-(5-(methylamino)pyrazolo[1,5-a]pyrimidin-7-yl)-1H-pyrazol-1-yl)-1-(ethylsulfonyl)azetidine-3-yl)acetonitrile] | > 100 | > 100
CS(=O)(=O)N1CC(CC#N)(n2cc(-c3ccnc(NCc4ccccc4)n3)c(N)n2)C1 [Example 79, 2-(3-(3-amino-4-(2-(benzylamino)pyrimidin-4-yl)-1H-pyrazol-1-yl)-1-(methylsulfonyl)azetidine-3-yl)acetonitrile] | > 100 | > 100
CS(=O)(=O)N1CC(CC#N)(n2cc(-c3ccnc(NCCO)n3)c(N)n2)C1 [Example 78] | > 100 | > 100
CC(C)NC(=O)N1CC(CC#N)(n2cc(-c3ncnc4[nH]ccc34)c(N)n2)C1 [Example 15, 3-(3-amino-4-(7H-pyrrolo[2,3-d]pyrimidin-4-yl)-1H-pyrazol-1-yl)-3-(cyanomethyl)-N-isopropylaza-1-formamide] | < 50 | < 50
N#CCC1(n2cc(-c3ncnc4[nH]ccc34)c(N)n2)CN(C(=O)C2CC(F)(F)C2)C1 [Example 32, 2-(3-(3-amino-4-(7H-pyrrolo[2,3-d]pyrimidin-4-yl)-1H-pyrazol-1-yl)-1-(3,3-difluorocyclobutane-1-carbonyl)azetidine-3-yl)acetonitrile] | < 10 | < 5
CS(=O)(=O)N1CC(CC#N)(n2cc(-c3cc(NCCO)ncn3)c(N)n2)C1 [Example 74, 2-(3-(3-amino-4-(6-((2-hydroxyethyl)amino)pyrimidin-4-yl)-1H-pyrazol-1-yl)-1-(methylsulfonyl)azetidine-3-yl)acetonitrile] | > 100 | > 100
N#CCC1(n2cc(-c3ncnc4[nH]ccc34)c(N)n2)CN(C(=O)N[C@H]2CC2(F)F)C1 [Example 20, (S)-3-(3-amino-4-(7H-pyrrolo[2,3-d]pyrimidin-4-yl)-1H-pyrazol-1-yl)-3-(cyanomethyl)-N-(2,2-difluorocyclopropyl)azetidine-1-formamide] | < 10 | < 10
N#CCC1(n2cc(-c3ncnc4[nH]ccc34)c(N)n2)CN(C(=O)NC2CC2)C1 [Example 12, 3-(3-amino-4-(7H-pyrrolo[2,3-d]pyrimidin-4-yl)-1H-pyrazol-1-yl)-3-(cyanomethyl)-N-cyclopropylazetidine-1-formamide] | < 50 | < 50
CCS(=O)(=O)N1CC(CC#N)(n2cc(-c3cc(Cl)cn4ncnc34)c(N)n2)C1 [Example 83, 2-(3-(3-amino-4-(6-chloro-[1,2,4]triazolo[1,5-a]pyridin-8-yl)-1H-pyrazol-1-yl)-1-(ethylsulfonyl)azetidine-3-yl)acetonitrile] | > 100 | > 100
CS(=O)(=O)N1CC(CC#N)(n2cc(-c3cc(NCC4CCOCC4)ncn3)c(N)n2)C1 [Example 76, 2-(3-(3-amino-4-(6-((tetrahydro-2H-pyran-4-yl)methyl)amino)pyrimidin-4-yl-1H-pyrazol-1-yl)-1-(methylsulfonyl)azetidine-3-yl)acetonitrile] | > 100 | > 100
CCS(=O)(=O)N1CC(CC#N)(n2cc(-c3cc(-c4cnn(C)c4)nn4ccnc34)c(N)n2)C1 [Example 80] | > 100 | > 100
N#CCC1(n2cc(-c3ncnc4[nH]ccc34)c(N)n2)CN(C(=O)NCCO)C1 [Example 17, 3-(3-amino-4-(7H-pyrrolo[2,3-d]pyrimidin-4-yl)-1H-pyrazol-1-yl)-3-(cyanomethyl)-N-(2-hydroxyethyl)azetidine-1-formamide] | < 50 | < 50
CS(=O)(=O)N1CC(CC#N)(n2cc(-c3ncnc(NCC4CCOCC4)n3)c(N)n2)C1 [Example 73] | > 100 | > 100
